Source: US20240381872A1, “SUBSTITUTED 2,3-DIHYDRO[1,3]THIAZOLO[4,5-B]PYRIDINES, SALTS THEREOF AND THEIR USE AS HERBICIDALLY ACTIVE SUBSTANCES” (BAYER AKTIENGESELLSCHAFT, priority 2021, published 2024)

What was measured:
Type in all cases: in vivo
[1] = system: Alopecurus myosuroides (ALOMY); test: Herbicidal pre-emergence action, section A (Table A2); conditions: application rate 1280 g/ha; visual grading after ca. 3 weeks vs untreated controls
Description: (§1) Seeds of mono- and dicotyledonous weed plants were sown in plastic pots (double sowings with one species of mono- and one species of dicotyledonous weed plants per pot), in sandy loam, and covered with soil. The compounds according to the invention, formulated in the form of wettable powders (WP) or as emulsifiable concentrates (EC), were applied to the surface of the covering soil as aqueous suspension or emulsion, with the addition of 0.5% of an additive, at an application rate of 600 l of water per hectare (converted). Following treatment, the pots were placed in a greenhouse and kept under optimum growth conditions for the test plants. The visual grading of the damage to the test plants was carried out after ca. 3 weeks in comparison to untreated controls (herbicidal effect in percent (%): 100% effect=plants have died off, 0% effect=as control plants).

[2] = system: Echinochloa crus-galli (ECHCG); test: Herbicidal pre-emergence action, section A (Table A3); conditions: visual grading after ca. 3 weeks vs untreated controls
Method in brief: (§2)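 In this greenhouse test, sown seeds under soil cover received the compounds as suspensions or emulsions, with 0.5% additive, at 600 l water/ha before emergence. Damage was assessed by eye after about 3 weeks, compared with untreated controls.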

Kochia scoparia (KCHSC) [3] = test: Herbicidal pre-emergence action, section A (Table A4); conditions: visual grading after ca. 3 weeks vs untreated controls
Method in brief: as §2

Lolium rigidum (LOLRI) = test: Herbicidal pre-emergence action, section A (Table A5); conditions: application rate 320 g/ha; visual grading after ca. 3 weeks vs untreated controls
Method in brief: as §2

[4] = system: Matricaria inodora (MATIN); test: Herbicidal pre-emergence action, section A (Table A6); conditions: application rate 1280 g/ha; visual grading after ca. 3 weeks vs untreated controls
Method in brief: as §2

Poa annua (POAAN) [5] = test: Herbicidal pre-emergence action, section A (Table A7); conditions: visual grading after ca. 3 weeks vs untreated controls
Method in brief: as §2

Setaria viridis (SETVI) [6] = test: Herbicidal pre-emergence action, section A (Table A8); conditions: application rate 1280 g/ha
Method in brief: as §2

Stellaria media (STEME) [7] = test: Herbicidal pre-emergence action, section A (Table A9)
Method in brief: as §2

Veronica persica (VERPE) [8] = test: Herbicidal pre-emergence action, section A (Table A10); conditions: application rate 1280 g/ha
Method in brief: as §2

[9] = system: Amaranthus retroflexus (AMARE); test: Herbicidal pre-emergence action, section A (Table A11)
Method in brief: as §2

[10] = system: Digitaria sanguinalis (DIGSA); test: Herbicidal pre-emergence action, section A (Table A12); conditions: application rate 1280 g/ha
Method in brief: as §2

[11] = system: Abutilon theophrasti (ABUTH); test: Herbicidal post-emergence action, section B (Table B1); conditions: application rate 1280 g/ha, rated visually after about 3 weeks
Protocol: (§3) Seeds of mono- and dicotyledonous weed plants were placed in plastic pots in sandy loam soil (doubly sown with in each case one species of mono- or dicotyledonous weed plants per pot), covered with soil and cultivated in a greenhouse under controlled growth conditions. 2 to 3 weeks after sowing, the test plants were treated at the one-leaf stage. The compounds of the invention, formulated in the form of wettable powders (WP) or as emulsion concentrates (EC), were applied onto the green parts of the plants as aqueous suspension or emulsion with addition of 0.5% additive at a water application rate of 600 liters per hectare (converted). After the test plants had been kept in the greenhouse under optimum growth conditions for about 3 weeks, the activity of the preparations was rated visually in comparison to untreated controls. For example, 100% activity=the plants have died, 0% activity=like control plants.

Kochia scoparia (KCHSC) [12] = test: Herbicidal post-emergence action, section B (Table B4); conditions: application rate 320 g/ha; visual rating about 3 weeks after treatment vs untreated controls
Method in brief: (§4)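 Under optimum greenhouse conditions, sandy-loam-grown weeds at the one-leaf stage are sprayed with aqueous suspension or emulsion carrying 0.5% additive, 600 liters per hectare. About 3 weeks later, visual percent activity is scored relative to untreated controls.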

Poa annua (POAAN) [13] = test: Herbicidal post-emergence action, section B (Table B7); conditions: application rate 1280 g/ha; visual rating about 3 weeks after treatment vs untreated controls
Protocol: as §3

Setaria viridis (SETVI) [14] = test: Herbicidal post-emergence action, section B (Table B8); conditions: application rate 1280 g/ha; visual rating about 3 weeks after treatment vs untreated controls
Protocol: as §3

Stellaria media (STEME) [15] = test: Herbicidal post-emergence action, section B (Table B9); conditions: application rate 1280 g/ha; visual rating about 3 weeks after treatment vs untreated controls
Method in brief: as §4

Veronica persica (VERPE) [16] = test: Herbicidal post-emergence action, section B (Table B10); conditions: application rate 320 g/ha; visual rating about 3 weeks after treatment vs untreated controls
Method in brief: as §4

[17] = system: Amaranthus retroflexus (AMARE); test: Herbicidal post-emergence action, section B (Table B11); conditions: application rate 1280 g/ha; visual rating about 3 weeks after treatment vs untreated controls
Method in brief: as §4

[18] = system: Digitaria sanguinalis (DIGSA); test: Herbicidal post-emergence action, section B (Table B12); conditions: application rate 1280 g/ha; visual rating about 3 weeks after treatment vs untreated controls
Protocol: as §3

[19] = system: Amaranthus retroflexus (AMARE); test: Herbicidal pre-emergence action, section C (Table C11); conditions: Amaranthus retroflexus, pre-emergence, 504 h; application rate 320 g/ha; visual grading after ca. 3 weeks; read-out: pre-emergence activity against AMARE in %
Description: Seeds of mono- and dicotyledonous weed plants and crop plants were sown, in plastic or organic planting pots, in sandy loam and covered with soil. The compounds according to the invention, formulated in the form of wettable powders (WP) or as emulsifiable concentrates (EC), were applied to the surface of the covering soil as aqueous suspension or emulsion, with the addition of 0.5% of an additive, at an application rate of 600 l of water/ha (converted). Following treatment, the pots were placed in a greenhouse and kept under optimum growth conditions for the test plants. The visual grading of the damage to the test plants was carried out after ca. 3 weeks in comparison to untreated controls (herbicidal effect in percent (%): 100% effect=plants have died off, 0% effect=as control plants).

[20] = system: Triticum aestivum (TRZAS); test: Pre-emergence effects on crop plants, section D (Table D2); conditions: application rate 80 g/ha; visual grading after ca. 3 weeks
Description: (§5) Seeds of mono- and dicotyledonous weed plants and crop plants were sown, in plastic or organic planting pots, in sandy loam and covered with soil. The compounds according to the invention, formulated in the form of wettable powders (WP) or as emulsifiable concentrates (EC), were applied to the surface of the covering soil as aqueous suspension or emulsion, with the addition of 0.5% of an additive, at an application rate of 600 l of water/ha (converted).
(§6) Following treatment, the pots were placed in a greenhouse and kept under optimum growth conditions for the test plants. The visual grading of the damage to the test plants was carried out after ca. 3 weeks in comparison to untreated controls (herbicidal effect in percent (%): 100% effect=plants have died off, 0% effect=as control plants).
(§7) Tables D1 to D5 below show the effects of various compounds of the general formula (I) according to Table 1 on various crop plants and an application rate corresponding to 320 g/ha or below obtained by the experimental procedure mentioned above in Biological Examples, Section C.

Glycine max (GLXMA) [21] = test: Pre-emergence effects on crop plants, section D (Table D4); conditions: application rate 80 g/ha; visual grading after ca. 3 weeks
Description: as §5, §6, §7

Zea mays (ZEAMX) = test: Post-emergence effects on crop plants, section F (Table F1); conditions: Zea mays, 504 h, application rate 320 g/ha, read-out: post-emergence activity against ZEAMX in %
Description: (§8) Seeds of mono- and dicotyledonous weed plants and crop plants were sown, in plastic or organic planting pots, in sandy loam, covered with soil and grown in a greenhouse under controlled growth conditions. 2 to 3 weeks after sowing, the test plants were sprayed in the single-leaf stage. The compounds according to the invention, formulated in form of wettable powders (WP) or as emulsifiable concentrates (EC), were sprayed onto the green plant parts as aqueous suspension or emulsion, with the addition of 0.5% of an additive, at an application rate of 600 l of water/ha (converted). The test plants were placed in the greenhouse for ca. 3 weeks under optimum growth conditions, and then the effect of the preparations was assessed visually in comparison with untreated controls (herbicidal effect in percent (%): 100% effect=plants have died off, 0% effect=as control plants). Tables F1 to F4 below show the effects of selected compounds of the general formula (I) according to Table 1 on various crop plants and an application rate corresponding to 320 g/ha or below obtained by the experimental procedure mentioned above.

[22] = system: Triticum aestivum (TRZAS); test: Post-emergence effects on crop plants, section F (Table F2); conditions: Triticum aestivum, 504 h, application rate 320 g/ha, read-out: post-emergence activity against TRZAS in %
Description: as §8

Glycine max (GLXMA) [23] = test: Post-emergence effects on crop plants, section F (Table F4); conditions: Glycine max, 504 h, application rate 80 g/ha, read-out: post-emergence activity against GLXMA in %
Description: as §8

[24] = system: Abutilon theophrasti (ABUTH); test: Herbicidal pre-emergence action, section A (Table A1); conditions: application rate 1280 g/ha; visual grading after ca. 3 weeks vs untreated controls
Description: as §1

Row | Compound | pre-emergence activity against KCHSC in % (Kochia scoparia (KCHSC) [3]; application rate 1280 g/ha) | pre-emergence activity against MATIN in % [4] | pre-emergence activity against SETVI in % (Setaria viridis (SETVI) [6]) | pre-emergence activity against STEME in % (Stellaria media (STEME) [7]; application rate 320 g/ha) | pre-emergence activity against DIGSA in % [10] | post-emergence activity against ABUTH in % [11] | post-emergence activity against KCHSC in % (Kochia scoparia (KCHSC) [12]) | post-emergence activity against POAAN in % (Poa annua (POAAN) [13]) | post-emergence activity against STEME in % (Stellaria media (STEME) [15]) | post-emergence activity against AMARE in % [17] | post-emergence activity against DIGSA in % [18] | pre-emergence activity against AMARE in % ([9]; application rate 1280 g/ha) | other results
1 | Cc1ccccc1-c1nc2c(cc1Br)SCN2B1NB(N)N1 [Example I-056] | 100% | 90% | 100% | 90% | 100% | 90% | 90% | 90% | 90% | 90% | 90% |  | pre-emergence activity against ALOMY in % [1]: 90%; pre-emergence activity against ECHCG in % ([2]; application rate 1280 g/ha): 100%; pre-emergence activity against LOLRI in % (Lolium rigidum (LOLRI)): 100%; pre-emergence activity against POAAN in % (Poa annua (POAAN) [5]; application rate 1280 g/ha): 100%; pre-emergence activity against VERPE in % (Veronica persica (VERPE) [8]): 90%; pre-emergence activity against AMARE in % ([9]; application rate 320 g/ha): 90%; post-emergence activity against SETVI in % (Setaria viridis (SETVI) [14]): 90%; post-emergence activity against VERPE in % (Veronica persica (VERPE) [16]): 90%
2 | Cc1cc2c(nc1-c1cccc(F)c1F)N(S(C)(=O)=O)CS2(=O)=O [Example I-151, 5-(2,3-difluorophenyl)-3-(methylsulfonyl)-6-methyl-2,3-dihydro[1,3]thiazolo[4,5-b]pyridine 1,1-dioxide] |  |  |  |  |  |  |  |  |  |  |  |  | pest or weed control at 320 g/ha [19]: 100%; pre-emergence activity against TRZAS in % (crop plant damage) [20]: 0%; pre-emergence activity against GLXMA in % (crop plant damage) (Glycine max (GLXMA) [21]): 0%; percent crop plant damage (phytotoxicity) on Zea mays, post-emergence at 320 g/ha (Zea mays (ZEAMX)): 0%; percent crop plant damage (wheat, post-emergence) at 320 g/ha [22]: 0%; percent crop plant damage at 80 g/ha (Glycine max (GLXMA) [23]): 0%
3 | CC(=O)N1CSc2cc(Br)c(-c3cccc(Cl)c3F)nc21 [Example I-115] | 90% |  |  |  | 100% |  |  | 90% |  |  | 90% | 90% | pre-emergence activity against STEME in % (Stellaria media (STEME) [7]; application rate 1280 g/ha): 90%
4 | Cc1cc2c(nc1-c1cccc(C)c1C)N(C(=O)C1(C)CC(Cl)=NO1)CS2 (stereo not drawn) [Example I-138] |  | 90% | 100% | 90% | 90% | 90% | 90% | 90% | 90% | 100% |  | 90% | pre-emergence activity against ABUTH in % [24]: 90%; pre-emergence activity against ECHCG in % ([2]; application rate 320 g/ha): 90%; pre-emergence activity against KCHSC in % (Kochia scoparia (KCHSC) [3]; application rate 320 g/ha): 90%; pre-emergence activity against POAAN in % (Poa annua (POAAN) [5]; application rate 320 g/ha): 100%
